From patent US9249127B2 (Orion Corporation, priority 2012, dated 2016) come the findings set out here.

The experiment deals with T1, alpha2A receptor (Homo sapiens, UniProt P08913).
T1 sequence (P08913 1-465): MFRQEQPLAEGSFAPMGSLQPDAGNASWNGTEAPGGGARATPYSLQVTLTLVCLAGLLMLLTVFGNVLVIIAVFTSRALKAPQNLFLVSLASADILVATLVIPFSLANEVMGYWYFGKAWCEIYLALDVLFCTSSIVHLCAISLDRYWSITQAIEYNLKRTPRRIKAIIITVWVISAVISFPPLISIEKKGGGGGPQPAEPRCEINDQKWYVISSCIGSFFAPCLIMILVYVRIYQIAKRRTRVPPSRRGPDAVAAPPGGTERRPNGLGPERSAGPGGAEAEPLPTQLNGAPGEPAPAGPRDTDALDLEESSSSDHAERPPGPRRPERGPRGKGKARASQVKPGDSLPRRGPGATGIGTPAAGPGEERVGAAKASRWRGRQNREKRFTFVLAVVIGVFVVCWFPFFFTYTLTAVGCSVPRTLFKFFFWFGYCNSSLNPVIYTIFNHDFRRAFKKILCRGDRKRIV
As to the kind of experiment: Alpha2A agonistic activity in vitro. The experiment is classed as cell-based.

Setting [1] is: Alpha2A Agonism pEC50, in vitro.
Setting [2] is: in vitro, read-out: Alpha2A Agonism pEC50 (converted).

Like-named read-outs stand apart in the source and are kept apart here.

Under setting [1], `Brc1cccc2c1CCSC2C1=NCCN1` (centres unmarked) [Example 65, 2-(5-Bromoisothiochroman-1-yl)-4,5-dihydro-1H-imidazole] gave an EC50 of 79.4 nM. Moreover, the “Alpha2A Intrinsic Activity” value (in vitro) came to 0.56.
The matching figures for `C=CCc1cccc2c1CCOC2C1=NCCN1` (centres unmarked) [Example 6, 2-(5-Allylisochroman-1-yl)-4,5-dihydro-1H-imidazole]: 39.8 nM and 0.53.
As for `CC1(C2=NCCN2)OCCc2c(C(O)C(C)(C)C)cccc21` (single isomer, unassigned) [Example 13, 1-(1-(4,5-Dihydro-1H-imidazol-2-yl)-1-methylisochroman-5-yl)-2,2-dimethylpropan-1-ol], the “Alpha2A Intrinsic Activity” value (in vitro) stood at 0.66. In addition, the EC50 under setting [2] was 1260 nM.
Regarding `Cc1cccc2c1CCOC2C1=NCCN1` (centres unmarked) [Example 1, 2-(5-Methylisochroman-1-yl)-4,5-dihydro-1H-imidazole], under setting [1], the EC50 was 3.98 nM. In addition, the “Alpha2A Intrinsic Activity” value (in vitro) came to 0.89.
For the compound `CC1Cc2c(Cl)cccc2C(C)(C2=NCCN2)O1` (centres unmarked) [Example 28, 2-(5-Chloro-1,3-dimethylisochroman-1-yl)-4,5-dihydro-1H-imidazole], the “Alpha2A Intrinsic Activity” value (in vitro) worked out at 0.64. Under setting [2], the EC50 is 1000 nM.
Regarding `CCc1cccc2c1C[C@@H](C)OC2(C)C1=NCCN1` (stereo partly drawn) [Example 73, 2-((3R)-5-ethyl-1,3-dimethylisochroman-1-yl)-4,5-dihydro-1H-imidazole], the “Alpha2A Intrinsic Activity” value (in vitro) came to 0.19. Besides, the EC50 under setting [2] is 1580 nM.
Consider `Cc1cccc2c1CCSC2C1=NCCN1` (centres unmarked) [Example 64, 2-(5-Methylisothiochroman-1-yl)-4,5-dihydro-1H-imidazole], for which the EC50 under setting [1] is 79.4 nM. For the same compound, for the setting “in vitro”, the “Alpha2A Intrinsic Activity” value is 0.59.
For the compound `CC1Cc2c(Br)cccc2C(C)(C2=NCCN2)O1` (centres unmarked) [Example 31, 2-(5-Bromo-1,3-dimethylisochroman-1-yl)-4,5-dihydro-1H-imidazole], under “in vitro”, the “Alpha2A Intrinsic Activity” value was 0.43. Also, under setting [2], the EC50 is 1260 nM.
Turning to `CC#Cc1cccc2c1CCOC2C1=NCCN1` (centres unmarked) [Example 55, 2-(5-(Prop-1-yn-1-yl)isochroman-1-yl)-4,5-dihydro-1H-imidazole], the “Alpha2A Intrinsic Activity” value (in vitro) is listed as 0.80. Further, the EC50 under setting [2] is 126 nM.
As to `FC(F)(F)CC1Cc2c(Br)cccc2C(C2=NCCN2)O1` (single isomer, unassigned) [Example 68], the “Alpha2A Intrinsic Activity” value (in vitro) is 0.25.
Regarding `CCOc1cccc2c1CCOC2C1=NCCN1` (centres unmarked) [Example 51, 2-(5-Ethoxyisochroman-1-yl)-4,5-dihydro-1H-imidazole], where the note is “in vitro”, the “Alpha2A Intrinsic Activity” value amounted to 0.26. Besides, the EC50 under setting [2] is 631 nM.
`CCc1cccc2c1C[C@@H](CC)OC2C1=NCCN1` (stereo partly drawn) [Example 47, 2-((3R)-3,5-diethylisochroman-1-yl)-4,5-dihydro-1H-imidazole]: the “Alpha2A Intrinsic Activity” value (in vitro) was 0.22. For the same compound, the EC50 under setting [2] was 2000 nM.
As to “2-(5-methoxy-3-(2,2,2-trifluoroethyl)methyl-isochroman-1-yl)-4,5-dihydro-1H-imidazole [Example 77]”, for the setting “in vitro”, the “Alpha2A Agonism pEC50” value was determined as 6.3 and the “Alpha2A Intrinsic Activity” value is listed as 0.16.
Regarding `Cc1cccc2c1CC(CC(F)(F)F)OC2C1=NCCN1` (centres unmarked) [Example 52, 2-(5-Methyl-3-(2,2,2-trifluoroethyl)isochroman-1-yl)-4,5-dihydro-1H-imidazole], the “Alpha2A Intrinsic Activity” value (in vitro) came out at 0.41. Also, under setting [2], the EC50 was 100 nM.
In the same order, the values of `COc1cccc2c1CCOC2C1=NCCN1` (centres unmarked) [Example 17, 2-(5-Methoxyisochroman-1-yl)-4,5-dihydro-1H-imidazole] are 0.81 and 25.1 nM.
`CC[C@@H]1Cc2c(C)cccc2C(C2=NCCN2)O1` (stereo partly drawn) [Example 48, 2-((3R)-3-ethyl-5-methylisochroman-1-yl)-4,5-dihydro-1H-imidazole]: the EC50 under setting [1] is 25.1 nM. The “Alpha2A Intrinsic Activity” value (in vitro) came out at 0.58.
`Cc1cccc2c1C[C@H](C)OC2C1=NCCN1` (stereo partly drawn) [Example 37, 2-((3S)-3,5-dimethylisochroman-1-yl)-4,5-dihydro-1H-imidazole]: the “Alpha2A Intrinsic Activity” value (in vitro) stood at 0.63. Under setting [2], the EC50 was 316 nM.
On to `COc1cc(C)c2c(c1)C(C1=NCCN1)OC(C)C2` (centres unmarked) [Example 85, 2-(7-Methoxy-3,5-dimethylisochroman-1-yl)-4,5-dihydro-1H-imidazole], for which the “Alpha2A Intrinsic Activity” value (in vitro) stood at 0.22. Further, under setting [2], the EC50 is 1000 nM.
Under setting [1], `Cc1cccc2c1CC(CC(F)F)OC2C1=NCCN1` (centres unmarked) [Example 84, 2-(3-(2,2-Difluoroethyl)-5-methylisochroman-1-yl)-4,5-dihydro-1H-imidazole] gave an EC50 of 100 nM. In addition, for the setting “in vitro”, the “Alpha2A Intrinsic Activity” value amounted to 0.45.
In turn, `Clc1cccc2c1CCOC2C1=NCCN1` (single isomer, unassigned) [Example 100, 2-(5-chloroisochroman-1-yl)-4,5-dihydro-1H-imidazole] had an EC50 under setting [1] of 3.98 nM. Besides, where the note is “in vitro”, the “Alpha2A Intrinsic Activity” value was determined as 0.91.
`CC1(C2=NCCN2)OCCc2c(Br)cccc21` (centres unmarked) [Example 11, 2-(5-Bromo-1-methylisochroman-1-yl)-4,5-dihydro-1H-imidazole] gave an EC50 under setting [1] of 100 nM. Besides, for the setting “in vitro”, the “Alpha2A Intrinsic Activity” value worked out at 0.83.
Under setting [1], `Brc1cccc2c1CCOC2C1=NCCN1` (single isomer, unassigned) [Example 101, 2-(5-bromoisochroman-1-yl)-4,5-dihydro-1H-imidazole] gave an EC50 of 3.16 nM. Where the note is “in vitro”, the “Alpha2A Intrinsic Activity” value is on record as 0.89.
`CCc1cccc2c1CC(C)OC2C1=NCCN1` (centres unmarked) [Example 39, 2-(5-Ethyl-3-methylisochroman-1-yl)-4,5-dihydro-1H-imidazole]: under setting [1], the EC50 was 15.8 nM. For the same compound, for the setting “in vitro”, the “Alpha2A Intrinsic Activity” value is recorded as 0.67.
In the same order, the values of `CCc1cccc2c1CCOC2C1=NCCN1` (centres unmarked) [Example 8] are 39.8 nM and 0.77.
In the same order, the values of `Cc1cccc2c1CC(C)OC2C1=NCCN1` (centres unmarked) [Example 25, 2-(3,5-Dimethylisochroman-1-yl)-4,5-dihydro-1H-imidazole] are 3.16 nM and 0.82.
`CC1Cc2c(Br)cccc2C(C2=NCCN2)S1` (centres unmarked) [Example 63, 2-(5-Bromo-3-methylisothiochroman-1-yl)-4,5-dihydro-1H-imidazole]: the “Alpha2A Intrinsic Activity” value (in vitro) turned out to be 0.85. For the same compound, the EC50 under setting [2] is 3160 nM.
Regarding `Cc1cccc2c1CCSC2(C)C1=NCCN1` (centres unmarked) [Example 78, 2-(1,5-Dimethylisothiochroman-1-yl)-4,5-dihydro-1H-imidazole], under “in vitro”, the “Alpha2A Intrinsic Activity” value is 0.62. In addition, under setting [2], the EC50 was 501 nM.
Take `COCC1Cc2c(C)cccc2C(C2=NCCN2)O1` (centres unmarked) [Example 74, 2-(5-Methyl-3-(methoxymethyl)isochroman-1-yl)-4,5-dihydro-1H-imidazole]: the “Alpha2A Intrinsic Activity” value (in vitro) came out at 0.35. Besides, the EC50 under setting [2] was 794 nM.
The matching figures for `CC1(C2=NCCN2)OCCc2c(C(O)C(C)(C)C)cccc21` (single isomer, unassigned) [Example 14, 1-(1-(4,5-Dihydro-1H-imidazol-2-yl)-1-methylisochroman-5-yl)-2,2-dimethylpropan-1-ol]: 0.43 and 3160 nM.
`Clc1cccc2c1CCOC2C1=NCCN1` (centres unmarked) [Example 4, 2-(5-Chloroisochroman-1-yl)-4,5-dihydro-1H-imidazole] showed an EC50 under setting [1] of 7.94 nM. Also, the “Alpha2A Intrinsic Activity” value (in vitro) was found to be 0.85.
The matching figures for `C[C@H]1Cc2c(Cl)cccc2C(C2=NCCN2)O1` (stereo partly drawn) [Example 34, 2-((3S)-5-chloro-3-methylisochroman-1-yl)-4,5-dihydro-1H-imidazole]: 63.1 nM and 0.78.
Take `COc1cccc2c1CC(C)OC2C1=NCCN1` (centres unmarked) [Example 38, 2-(5-Methoxy-3-methylisochroman-1-yl)-4,5-dihydro-1H-imidazole]: under setting [1], the EC50 was 12.6 nM. For the same compound, the “Alpha2A Intrinsic Activity” value (in vitro) came out at 0.92.
On to `CCC1Cc2c(Br)cc(Br)cc2C(C2=NCCN2)O1` (centres unmarked) [Example 67, 2-(5,7-Dibromo-3-ethylisochroman-1-yl)-4,5-dihydro-1H-imidazole], for which the “Alpha2A Intrinsic Activity” value (in vitro) was determined as 0.42. Further, the EC50 under setting [2] is 1000 nM.
Regarding `Cc1cccc2c1C[C@@H](C)OC2C1=NCCN1` (stereo partly drawn) [Example 36, 2-((3R)-3,5-dimethylisochroman-1-yl)-4,5-dihydro-1H-imidazole], the EC50 under setting [1] is 1.58 nM. In addition, for the setting “in vitro”, the “Alpha2A Intrinsic Activity” value stood at 0.90.
Consider `Cc1cccc2c1C[C@@H](C)OC2(C)C1=NCCN1` (stereo partly drawn) [Example 23, 2-((3R)-1,3,5-trimethylisochroman-1-yl)-4,5-dihydro-1H-imidazole], for which the “Alpha2A Intrinsic Activity” value (in vitro) was 0.68. In addition, the EC50 under setting [2] is 316 nM.
In the same order, the values of `CC(C)c1cccc2c1CCOC2C1=NCCN1` (centres unmarked) [Example 41, 2-(5-Isopropylisochroman-1-yl)-4,5-dihydro-1H-imidazole] are 0.27 and 251 nM.
